Source: patent US6592910B1, “Methods of treating clinical diseases with isoflavones” (Board of Trustees, Southern Illinois University, priority 1999, dated 2003)
Marks after values point to notes of the source that are not given here.

Experiments:
male Sprague-Dawley rats [1] = experiment: Feed and weight measurements in male Sprague-Dawley rats injected for 6 weeks; type: in vivo, rat; settings: for Fat Weight: visceral fat
Method: (§1) Forty male Sprague-Dawley rats (5 wk old, n=9-10 rats/treatment, from Harlan Sprague-Dawley, Inc., Indianapolis, Ind.) were injected with either genistein (G), daidzein (D), estradiol (E), or a vehicle control (V). Each animal in group V received a daily 0.1 cc subcutaneous injection, for six weeks, of a 10% ethanol-90% olive oil solution; the other treatments received their respective compound as a daily 0.1 cc subcutaneous injection, for six weeks, e.g., 0.1 μg of compound/g of body weight, in a 10% ethanol-90% olive oil solution.
Animal weight and feed intake were measured weekly during the six week study, and the subsequent feed-efficiency ratio [FER (g of weight change/g of feed intake)] was determined. Following sacrifice, the abdominal fat pads, liver, and reproductive organs were removed and weighed for comparison.
(§2) These studies used a randomized design. All data were analyzed by one-way analysis of variance (ANOVA) and post-hoc comparisons were made with Tukey pairwise comparisons test. Significance was confirmed at P≦0.05 (SYSTAT 7.0, SPSS INC., 1997), and all values are reported as means±standard error of the mean.

male Sprague-Dawley rats [2] = experiment: Plasma glucose and plasma total cholesterol in male Sprague-Dawley rats injected for 6 weeks; type: in vivo, rat; settings: 6 weeks injection
Method: (§3) Forty male Sprague-Dawley rats (5 wk old, n=9-10 rats/treatment, from Harlan Sprague-Dawley, Inc., Indianapolis, Ind.) were injected with either genistein (G), daidzein (D), estradiol (E), or a vehicle control (V). Each animal in group V received a daily 0.1 cc subcutaneous injection, for six weeks, of a 10% ethanol-90% olive oil solution; the other treatments received their respective compound as a daily 0.1 cc subcutaneous injection, for six weeks, e.g., 0.1 μg of compound/g of body weight, in a 10% ethanol-90% olive oil solution. Collected blood was heparinized and centrifuged, plasma aliquots were then used for glucose and total cholesterol determinations, using standard glucose oxidase (Fisher Scientific, St. Louis, Mo.) and cholesterol kits (Fisher Scientific, St. Louis, Mo.). Liver cholesterol and triglyceride analysis. Analytical procedures for determination of liver total cholesterol, unesterified cholesterol, cholesteryl ester, and triglyceride concentrations were as described in Example 1. These studies used a randomized design. All data were analyzed by one-way analysis of variance (ANOVA) and post-hoc comparisons were made with Tukey pairwise comparisons test. Significance was confirmed at P≦0.05 (SYSTAT 7.0, SPSS INC., 1997), and all values are reported as means±standard error of the mean.

male Sprague-Dawley rats [3] = experiment: Liver weight, cholesterol and triglyceride in male Sprague-Dawley rats injected for 6 weeks; type: in vivo, rat; settings: for Liver total triglycerides: as triolein; for Liver total triglycerides / Liver cholesteryl esters / Liver total cholesterol / Liver unesterified cholesterol / Liver weight: daily s.c. injection, 6 weeks; for liver weight as a % of body weight, compared with V: rat, in vivo
Method: as §3, with “solution. Animal weight and feed intake were measured weekly during the six week study, and the subsequent feed-efficiency ratio [FER (g of weight change/g of feed intake)] was determined. Following sacrifice, the abdominal fat pads, liver, and reproductive organs were removed and weighed for comparison.” for “solution.”

[4] = tested on: Cu,Zn superoxide Dimutase (SOD); experiment: Liver Cu,Zn superoxide dimutase activity in injected rats; type: in vivo, rat; settings: daily s.c. injection, 6 weeks; P<0.05
Method: as §1
The activity or level of antioxidant enzymes (AOE), catalase (CAT) and Cu,Zn superoxide Dimutase (SOD) in rat liver, were measured to determine the effect of administration of G, D, and E injections on free radical defense systems. A 50 mg piece of whole frozen liver was removed and sonicated in TBS plus 1% Triton X-100. The samples were then centrifuged at 13,000×g for 25 min at 4° C., and the supernatant was collected. Total protein concentration was assayed for subsequent determinations of hepatic AOE activity or absolute level per milligram total protein. SOD activity was determined by spectrophotometry at I=560 nm using xanthine/xanthine oxidase as a superoxide generator and measured against a standard curve of known SOD activities (Sun et al. 1988, 1994). Catalase levels were determined bv Slot blot, which was performed following a representative Western blot that detected no nonspecific binding (Tobin et al. 1979). The bands corresponding to catalase were quantified by densitometry.
as §2

[5] = tested on: stenotic arteries of female macaques; settings: intravenous infusion; cited from earlier work

Prostate Weight (male Sprague-Dawley rats [1]; daily s.c. injection, 6 weeks)	Testis Weight (male Sprague-Dawley rats [1]; daily s.c. injection, 6 weeks) [g]	Body, testis, and prostate weight compared to D, G, and V treated animals (male Sprague-Dawley rats [1]; rat, in vivo)	Compound	Body Weight (male Sprague-Dawley rats [1]; daily s.c. injection, 6 weeks)	Fat Weight (male Sprague-Dawley rats [1]; daily s.c. injection, 6 weeks)	plasma cholesterol levels vs the V group (male Sprague-Dawley rats [2])	Liver weights vs the V group (male Sprague-Dawley rats [3]; P<0.05)	Liver total triglycerides (male Sprague-Dawley rats [3])	Liver cholesteryl esters (male Sprague-Dawley rats [3])	Liver total cholesterol (male Sprague-Dawley rats [3])	Liver unesterified cholesterol (male Sprague-Dawley rats [3]) [μmol/g liver]	Liver weight (male Sprague-Dawley rats [3])	liver weight as a % of body weight, compared with V (male Sprague-Dawley rats [3])	elevation of liver SOD activity over vehicle controls [4]	vasoconstriction in stenotic arteries [5]	Liver triglyceride concentrations compared to the E treatment (male Sprague-Dawley rats [3]; P<0.05)
.732 g	2.90		O=c1c(-c2ccc(O)cc2)coc2cc(O)cc(O)c12 [G, genistein]	363.00 g	11.19 g	non-significant trend (P<0.5) toward lower	considerably (P<0.05) lower	29.528 μmol/g liver	2.589 μmol/g liver	5.189 μmol/g liver	2.600	12.970^a g	reduction in relative liver mass	15%	rapid inhibition	
		markedly (P<0.05) lower	C[C@]12CC[C@@H]3c4ccc(O)cc4CC[C@H]3[C@@H]1CC[C@@H]2O [E, estradiol, reference compound]	242.50^a,b,c g	6.71^a,b,c g			32.186^c μmol/g liver	4.104^a,b μmol/g liver	6.722^a,b,c μmol/g liver	2.618	10.487^a,b,c g		approximately 33%		
			O=c1c(-c2ccc(O)cc2)coc2cc(O)ccc12 [D, daidzein]	367.89 g	11.66 g		considerably (P<0.05) lower	17.980 μmol/g liver	3.114 μmol/g liver	5.678 μmol/g liver	2.563	12.857^a g	reduction in relative liver mass	approximately 33%		significantly (P<0.05) lower
